Source: ChEMBL document CHEMBL1146989 (Bioorg Med Chem Lett, 2006)
pIC50: −log10 of the molar value.

target: PI3-kinase p110-alpha/p85-alpha (Homo sapiens, UniProt P42336); assay: Inhibition of PI3 kinase p110alpha/p85-alpha complex; type: protein-complex assay
Sequence (P27986 whole entry): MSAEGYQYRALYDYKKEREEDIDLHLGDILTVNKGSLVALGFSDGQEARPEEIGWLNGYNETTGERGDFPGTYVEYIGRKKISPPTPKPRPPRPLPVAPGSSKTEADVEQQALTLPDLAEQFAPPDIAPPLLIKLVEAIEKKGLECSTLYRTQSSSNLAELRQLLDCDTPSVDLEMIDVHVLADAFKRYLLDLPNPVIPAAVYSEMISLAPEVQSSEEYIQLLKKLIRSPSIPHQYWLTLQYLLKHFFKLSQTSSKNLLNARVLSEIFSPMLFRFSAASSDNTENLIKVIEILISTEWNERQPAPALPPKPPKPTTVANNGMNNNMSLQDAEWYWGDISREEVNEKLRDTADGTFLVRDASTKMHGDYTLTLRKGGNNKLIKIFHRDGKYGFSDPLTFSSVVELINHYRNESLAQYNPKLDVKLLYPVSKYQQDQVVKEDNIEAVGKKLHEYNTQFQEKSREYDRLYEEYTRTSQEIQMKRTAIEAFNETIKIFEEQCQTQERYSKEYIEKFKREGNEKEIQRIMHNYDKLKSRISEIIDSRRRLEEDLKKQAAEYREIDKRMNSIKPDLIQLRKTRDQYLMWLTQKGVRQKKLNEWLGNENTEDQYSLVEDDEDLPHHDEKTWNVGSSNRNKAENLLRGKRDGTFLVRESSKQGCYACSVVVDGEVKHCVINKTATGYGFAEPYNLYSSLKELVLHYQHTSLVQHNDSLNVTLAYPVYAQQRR
Sequence (P42336 whole entry): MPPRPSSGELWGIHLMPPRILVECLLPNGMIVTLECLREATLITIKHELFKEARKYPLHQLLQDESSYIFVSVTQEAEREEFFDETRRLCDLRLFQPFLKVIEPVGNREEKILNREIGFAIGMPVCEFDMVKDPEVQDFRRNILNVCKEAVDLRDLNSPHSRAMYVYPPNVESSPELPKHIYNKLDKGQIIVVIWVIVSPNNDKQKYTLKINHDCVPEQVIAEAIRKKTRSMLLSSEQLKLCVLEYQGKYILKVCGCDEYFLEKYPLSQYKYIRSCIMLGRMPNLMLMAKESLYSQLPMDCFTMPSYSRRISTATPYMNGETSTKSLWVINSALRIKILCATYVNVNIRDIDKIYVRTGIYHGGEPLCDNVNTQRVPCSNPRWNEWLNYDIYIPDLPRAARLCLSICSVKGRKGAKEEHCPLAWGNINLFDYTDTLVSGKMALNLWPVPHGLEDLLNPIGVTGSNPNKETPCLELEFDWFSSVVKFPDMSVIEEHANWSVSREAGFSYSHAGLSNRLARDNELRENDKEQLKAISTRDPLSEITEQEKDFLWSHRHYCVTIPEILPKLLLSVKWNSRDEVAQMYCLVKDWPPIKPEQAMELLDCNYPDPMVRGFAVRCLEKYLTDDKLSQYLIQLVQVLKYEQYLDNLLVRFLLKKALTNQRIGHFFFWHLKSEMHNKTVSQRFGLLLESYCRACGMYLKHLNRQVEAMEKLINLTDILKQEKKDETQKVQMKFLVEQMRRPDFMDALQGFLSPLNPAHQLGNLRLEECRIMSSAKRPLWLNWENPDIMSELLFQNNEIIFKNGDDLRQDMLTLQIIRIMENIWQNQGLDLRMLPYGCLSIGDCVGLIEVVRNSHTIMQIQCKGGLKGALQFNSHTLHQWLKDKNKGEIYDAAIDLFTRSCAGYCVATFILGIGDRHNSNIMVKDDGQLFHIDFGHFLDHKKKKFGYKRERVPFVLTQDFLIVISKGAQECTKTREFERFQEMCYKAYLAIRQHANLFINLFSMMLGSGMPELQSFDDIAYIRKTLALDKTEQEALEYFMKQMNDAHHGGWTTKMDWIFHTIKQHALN

| pIC50 | Compound |
| --- | --- |
| 8.02 | CN(CC(=O)O[C@@H]1CC(=O)c2coc3c2[C@@]1(C)c1ccc2c(c1C3=O)CCC2=O)c1ccc([N+](=O)[O-])c2nonc12 |
| 6.16 | COC[C@H]1OC(=O)c2coc3c2[C@@]1(C)C1=C(C3=O)C2CC[C@H](OC(=O)Cc3cc(=O)oc4cc(N(C)C)ccc34)[C@@]2(C)C[C@H]1OC(C)=O (stereo partly specified) |
| 6.65 | COC[C@H]1OC(=O)c2coc3c2[C@@]1(C)C1=C(C3=O)C2CC[C@H](OC(=O)CN(C)c3ccc([N+](=O)[O-])c4nonc34)[C@@]2(C)C[C@H]1OC(C)=O (stereo partly specified) |
| 9.15 | COC[C@H]1OC(=O)c2coc3c2[C@@]1(C)C1=C(C3=O)C2CCC(=O)[C@@]2(C)C[C@H]1OC(=O)CN(C)c1ccc([N+](=O)[O-])c2nonc12 (stereo partly specified) |
| 8.72 | CN(C)c1ccc2c(CC(=O)O[C@@H]3CC(=O)c4coc5c4[C@@]3(C)c3ccc4c(c3C5=O)CCC4=O)cc(=O)oc2c1 |
| 8.00 | COC[C@H]1OC(=O)c2coc3c2[C@@]1(C)C1=C(C3=O)C2CCC(=O)[C@@]2(C)C[C@H]1OC(=O)Cc1cc(=O)oc2cc(N(C)C)ccc12 (stereo partly specified) |
